SMILES strings stand for the structures.

We go through seven compounds from patent US6583180B2, “Glucocorticoid receptor modulators” (Abbott Laboratories, priority 2001, dated 2003).

The target of assay [1] is T1, progesterone receptor (PR) (Homo sapiens, UniProt P06401).
T1 sequence (P06401 1-933): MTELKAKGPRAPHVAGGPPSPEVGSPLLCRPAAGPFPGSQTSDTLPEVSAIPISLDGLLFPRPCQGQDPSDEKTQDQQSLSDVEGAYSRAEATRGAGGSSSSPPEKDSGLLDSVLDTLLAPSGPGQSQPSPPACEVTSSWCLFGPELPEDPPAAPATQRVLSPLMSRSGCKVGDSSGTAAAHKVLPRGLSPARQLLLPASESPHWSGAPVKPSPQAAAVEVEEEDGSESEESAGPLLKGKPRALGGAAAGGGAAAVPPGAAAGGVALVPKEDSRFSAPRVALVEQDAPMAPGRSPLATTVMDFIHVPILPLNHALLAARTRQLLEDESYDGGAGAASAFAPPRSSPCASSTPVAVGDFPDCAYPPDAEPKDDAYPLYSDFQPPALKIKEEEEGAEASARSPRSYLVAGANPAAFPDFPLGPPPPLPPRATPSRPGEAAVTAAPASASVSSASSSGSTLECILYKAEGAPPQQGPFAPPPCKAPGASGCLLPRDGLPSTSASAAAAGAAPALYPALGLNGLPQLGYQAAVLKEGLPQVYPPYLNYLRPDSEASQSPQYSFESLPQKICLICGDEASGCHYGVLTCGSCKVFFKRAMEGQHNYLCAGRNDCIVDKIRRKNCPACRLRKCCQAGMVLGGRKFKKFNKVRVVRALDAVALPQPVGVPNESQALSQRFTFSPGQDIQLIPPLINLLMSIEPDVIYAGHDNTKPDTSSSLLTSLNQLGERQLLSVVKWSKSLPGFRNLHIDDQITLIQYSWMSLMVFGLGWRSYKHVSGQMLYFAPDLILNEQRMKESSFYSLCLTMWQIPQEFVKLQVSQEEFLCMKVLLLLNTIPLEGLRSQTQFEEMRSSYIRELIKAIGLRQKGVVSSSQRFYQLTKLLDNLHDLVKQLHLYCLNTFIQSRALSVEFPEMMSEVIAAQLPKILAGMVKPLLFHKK
In words: Radioligand binding assay for progesterone receptor (similar protocol).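 Note: radioligand binding measured with cytosol preparations containing the human progesterone receptor.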
From the text: Methods for Radiolipand Binding Studies with Human Glucocorticoid and Progesterone Receptor Cytosol

The target in assay [2] is T2, Human glucocorticoid receptors (Homo sapiens, UniProt P04150).
T2 construct: made in house; host or cells: Sf9 insect cells, recombinant baculovirus (BAC-TO-BAC)
T2 sequence (P04150 1-777): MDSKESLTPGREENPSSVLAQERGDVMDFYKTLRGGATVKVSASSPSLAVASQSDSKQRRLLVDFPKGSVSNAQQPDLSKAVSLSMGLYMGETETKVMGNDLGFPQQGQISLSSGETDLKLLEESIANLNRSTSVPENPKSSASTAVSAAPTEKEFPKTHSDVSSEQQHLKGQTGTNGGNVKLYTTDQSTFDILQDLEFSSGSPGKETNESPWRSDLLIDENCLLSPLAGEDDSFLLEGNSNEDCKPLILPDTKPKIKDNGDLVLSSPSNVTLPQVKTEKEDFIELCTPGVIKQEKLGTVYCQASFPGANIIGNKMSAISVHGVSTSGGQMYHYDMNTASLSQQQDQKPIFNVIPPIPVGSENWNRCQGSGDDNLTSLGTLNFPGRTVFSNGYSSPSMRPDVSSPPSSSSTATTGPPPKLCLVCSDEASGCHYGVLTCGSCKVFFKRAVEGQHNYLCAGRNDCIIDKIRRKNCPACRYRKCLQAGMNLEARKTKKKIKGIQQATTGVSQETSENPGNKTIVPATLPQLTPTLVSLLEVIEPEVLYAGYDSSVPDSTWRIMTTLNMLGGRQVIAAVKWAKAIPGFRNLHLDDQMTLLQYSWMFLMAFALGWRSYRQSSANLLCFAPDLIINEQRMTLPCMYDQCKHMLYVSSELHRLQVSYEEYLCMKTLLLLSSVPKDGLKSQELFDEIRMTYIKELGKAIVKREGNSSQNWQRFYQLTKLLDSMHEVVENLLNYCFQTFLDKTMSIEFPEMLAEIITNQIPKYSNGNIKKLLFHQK
In words: Radioligand filter binding assay, displacement of 3[H]-dexamethasone from hGR. Conditions: read-out: GR Binding (% Inhibition at 1.7 μM). The procedure, abridged: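 Recombinant hGR extract from baculovirus-infected Sf9 cells (final ~1 nM receptor) incubated with ³H-dexamethasone and test compound dilutions in duplicate, EDTA/phosphate pH 8 buffer with MTG, overnight (15-20 h) at +4° C. Bound label collected on PEI-treated GF/B filters and scintillation-counted; IC50 from four-parameter fit of corrected cpm.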

Assay [3] concerns obese diabetic db/db transgenic mice. To be noted: Friedman et al. 1997; cited from earlier work.

Turning to `Cc1c(NS(C)(=O)=O)cccc1N(Cc1ccc(OCc2ccco2)cc1)Cc1ccc(F)cc1F` [Example 155, N-(3-{(2,4-difluorobenzyl)[4-(2-furylmethoxy)benzyl]amino}-2-methylphenyl)methanesulfonamide], the IC50 in assay [1] was 499 nM. For the same compound, the inhibition at 1.7 µM in assay [2] came out at 92.8%.
The matching figures for `Cc1c(NS(C)(=O)=O)cccc1N(Cc1ccc(Oc2ccc(Cl)c(O)c2)cc1)Cc1ccc(F)cc1F` [Example 322, N-(3-((4-(4-chloro-3-hydroxyphenoxy)benzyl)(2,4-difluorobenzyl)amino)-2-methylphenyl)methanesulfonamide]: 360 nM and 98.5%.
On the same counts, the results for `Cc1c(NS(C)(=O)=O)cccc1N(Cc1ccc(Oc2ccc(Br)c(OCC(=O)O)c2)cc1)Cc1ccc(F)cc1F` [Example 323, (2-bromo-5-(4-(((2,4-difluorobenzyl)(2-methyl-3-((methylsulfonyl)amino)phenyl)amino)methyl)phenoxy)phenoxy)acetic acid] are 66.6 nM and 98.2%.
On the same counts, the results for `Cc1c(NS(C)(=O)=O)cccc1N(Cc1ccc(Oc2cccc(OCCCC(=O)NCCC(=O)O)c2)cc1)Cc1ccc(F)cc1F` [Example 324, N-(4-(3-(4-(((2,4-difluorobenzyl)(2-methyl-3-((methylsulfonyl)amino)phenyl)amino)methyl)phenoxy)phenoxy)butanoyl)-beta-alanine] are 123 nM and 97.4%.
`Cc1c(NS(C)(=O)=O)cccc1N(Cc1ccc(Oc2cccc(OCCCC(=O)NCCCC(=O)O)c2)cc1)Cc1ccc(F)cc1F` [Example 325, 4-((4-(3-(4-(((2,4-difluorobenzyl)(2-methyl-3-((methylsulfonyl)amino)phenyl)amino)methyl)phenoxy)phenoxy)butanoyl)amino)butanoic acid] gave an IC50 in assay [1] of 122 nM. Moreover, the inhibition at 1.7 µM in assay [2] is 97.7%.
The matching figures for `Cc1c(NS(C)(=O)=O)cccc1N(Cc1ccc(Oc2cccc(OCCCC(=O)N(C)CC(=O)O)c2)cc1)Cc1ccc(F)cc1F` [Example 326, N-(4-(3-(4-(((2,4-difluorobenzyl)(2-methyl-3-((methylsulfonyl)amino)phenyl)amino)methyl)phenoxy)phenoxy)butanoyl)-N-methylglycine]: 183 nM and 97%.
Turning to `CC#C[C@]1(O)CC[C@H]2[C@@H]3CCC4=CC(=O)CCC4=C3[C@@H](c3ccc(N(C)C)cc3)C[C@@]21C` [Mifepristone], in assay [3], the “reduction of plasma glucose levels” value is given as 50%.

The IC50 is the point on the concentration scale where inhibition reaches its midpoint. By inhibition is commonly meant the percentage by which the read-out fell short of the control.
